Measurements: patent US20050112573A1, “Method of detecting toxic substance” (priority 2001, published 2005)

Tested on: yeast genes (level of expressed mRNA)
Test: DNA chip analysis of expressed mRNA of yeast genes after 2 h culture with a toxic chemical substance
Format: cell-based, Saccharomyces cerevisiae S288C
Protocol: Yeast (Saccharomyces cerevtisiae S288C (α SUC2mal mel gap2 CUP1)) were cultured at 25° C. on YPD medium (yeast extract 1%, polypepton 2%, glucose 2%). One of toxic chemical substances was added to the cell at logarithmic growth phase, and the cell was further cultured for two hours. Cell was cultured without any chemical substance in the same condition, and was used as control. Concentrations of the chemical substances were defined to inhibit the growth of the yeast but not lead to death.
After the completion of cultivation, the culture was centrifuged to collect the cells. To the cells, sodium acetate buffer (50 mM sodium acetate, 10 mM EDTA, 1% SDS) was added, and the mixture was shaken at 65° C. for five minutes, followed by returning to room temperature, and obtaining the supernatant, which procedure was repeated two times. To the supernatant, ½ amount of a solution of phenol/chloroform was added, and the mixture was centrifuged to give a supernatant, which was added with an equal amount of chloroform, and the mixture was centrifuged to give a supernatant. To the supernatant, an equal amount of isopropanol containing 0.3 M sodium acetate was added, and the mixture was allowed to stand at room temperature for 30 minutes, after which the mixture was centrifuged to give a sediment of the whole RNAs. Seventy % ethanol was added to the sediment, and the mixture was again centrifuged to give a sediment, which was then dried and dissolved in water. mRNA was isolated from the whole RNAs as followings. In view of the fact that a poly A chain is attached to the 3′ terminus of mRNA, a polynucleotide having a poly T structure which was immobilized on the surface of latex beads was used to trap the mRNA, and then the mRNA was washed and eluted with spine column (Oligotex-dT30<Super>mRNA Purification Kit, Takara). Reverse transcription of the mRNA was conducted with a reverse transcriptase (Super Script II Reverse Transcriptase; catalogue No. 18064-014, GibcoBRL) using fluorescence-labeled nucleotides to give cDNAs that were introduced with Cy3-dUTP or Cy5-dUTP during the reverse transcription.
The labeled cDNAs were dissolved in TE buffer (10 mM Tris-HCl/1 mM EDTA, pH8.0), and the solution was dropped on the DNA chip containing the whole genes of yeast (DNA Chip Research Inc. Japan) so that the cDNAs were hybridized on the DNA chip at 65° C. for over 12 hours. The fluoresces intensity of the DNA chip was read with a scanner, and the ratio relative to the fluorescence intensity resulting from the absence of chemical substance was estimated as the following, which is shown in Tables 1 to 9: [formula]
In the Tables, “Intensity” indicated in the rightmost column is a value of the level of expressed mRNA of each gene in control cells as divided by the average level of the expressions of the whole genes.

## Oc1cc(Cl)c(Cl)cc1Cl [(6), 2,4,5-trichlorophenol]
Yeast gene YAR010C
  The level of expressed mRNA in the presence of chemical substance/The level of expressed mRNA in the absence of chemical substance: 2.3
Yeast gene YBL005W-A
  The level of expressed mRNA in the presence of chemical substance/The level of expressed mRNA in the absence of chemical substance: 1.2
Yeast gene YBL041W
  The level of expressed mRNA in the presence of chemical substance/The level of expressed mRNA in the absence of chemical substance: 1.7
Yeast gene YBL043W
  The level of expressed mRNA in the presence of chemical substance/The level of expressed mRNA in the absence of chemical substance: 26.9
Yeast gene YBL078C
  The level of expressed mRNA in the presence of chemical substance/The level of expressed mRNA in the absence of chemical substance: 2.4
Yeast gene YBR214W
  The level of expressed mRNA in the presence of chemical substance/The level of expressed mRNA in the absence of chemical substance: 0.8
Yeast gene YCL020W
  The level of expressed mRNA in the presence of chemical substance/The level of expressed mRNA in the absence of chemical substance: 1.0
Yeast gene YCL027W
  The level of expressed mRNA in the presence of chemical substance/The level of expressed mRNA in the absence of chemical substance: 1.3
Yeast gene YCR004C
  The level of expressed mRNA in the presence of chemical substance/The level of expressed mRNA in the absence of chemical substance: 1.8
Yeast gene YCR071C
  The level of expressed mRNA in the presence of chemical substance/The level of expressed mRNA in the absence of chemical substance: 2.5
Yeast gene YCR088W
  The level of expressed mRNA in the presence of chemical substance/The level of expressed mRNA in the absence of chemical substance: 2.0
Yeast gene YDL008W
  The level of expressed mRNA in the presence of chemical substance/The level of expressed mRNA in the absence of chemical substance: 2.7
Yeast gene YDL238C
  The level of expressed mRNA in the presence of chemical substance/The level of expressed mRNA in the absence of chemical substance: 2.1
Yeast gene YDR055W
  The level of expressed mRNA in the presence of chemical substance/The level of expressed mRNA in the absence of chemical substance: 3.9
Yeast gene YDR084C
  The level of expressed mRNA in the presence of chemical substance/The level of expressed mRNA in the absence of chemical substance: 2.1
Yeast gene YDR085C
  The level of expressed mRNA in the presence of chemical substance/The level of expressed mRNA in the absence of chemical substance: 2.1
Yeast gene YDR104C
  The level of expressed mRNA in the presence of chemical substance/The level of expressed mRNA in the absence of chemical substance: 1.7
Yeast gene YDR115W
  The level of expressed mRNA in the presence of chemical substance/The level of expressed mRNA in the absence of chemical substance: 2.3
Yeast gene YDR259C
  The level of expressed mRNA in the presence of chemical substance/The level of expressed mRNA in the absence of chemical substance: 0.5
Yeast gene YDR315C
  The level of expressed mRNA in the presence of chemical substance/The level of expressed mRNA in the absence of chemical substance: 9.4
Yeast gene YDR358W
  The level of expressed mRNA in the presence of chemical substance/The level of expressed mRNA in the absence of chemical substance: 2.5
Yeast gene YDR388W
  The level of expressed mRNA in the presence of chemical substance/The level of expressed mRNA in the absence of chemical substance: 1.0
Yeast gene YDR432W
  The level of expressed mRNA in the presence of chemical substance/The level of expressed mRNA in the absence of chemical substance: 0.6
Yeast gene YDR481C
  The level of expressed mRNA in the presence of chemical substance/The level of expressed mRNA in the absence of chemical substance: 0.9
Yeast gene YDR510W
  The level of expressed mRNA in the presence of chemical substance/The level of expressed mRNA in the absence of chemical substance: 1.0
Yeast gene YEL042W
  The level of expressed mRNA in the presence of chemical substance/The level of expressed mRNA in the absence of chemical substance: 0.5
Yeast gene YEL066W
  The level of expressed mRNA in the presence of chemical substance/The level of expressed mRNA in the absence of chemical substance: 2.2
Yeast gene YER039C
  The level of expressed mRNA in the presence of chemical substance/The level of expressed mRNA in the absence of chemical substance: 1.6
Yeast gene YER107C
  The level of expressed mRNA in the presence of chemical substance/The level of expressed mRNA in the absence of chemical substance: 2.5
Yeast gene YER130C
  The level of expressed mRNA in the presence of chemical substance/The level of expressed mRNA in the absence of chemical substance: 2.7
Yeast gene YFL028C
  The level of expressed mRNA in the presence of chemical substance/The level of expressed mRNA in the absence of chemical substance: 1.7
Yeast gene YFL043C
  The level of expressed mRNA in the presence of chemical substance/The level of expressed mRNA in the absence of chemical substance: 1.8
Yeast gene YGL158W
  The level of expressed mRNA in the presence of chemical substance/The level of expressed mRNA in the absence of chemical substance: 0.4
Yeast gene YGL229C
  The level of expressed mRNA in the presence of chemical substance/The level of expressed mRNA in the absence of chemical substance: 2.2
Yeast gene YGR136W
  The level of expressed mRNA in the presence of chemical substance/The level of expressed mRNA in the absence of chemical substance: 1.1
Yeast gene YGR189C
  The level of expressed mRNA in the presence of chemical substance/The level of expressed mRNA in the absence of chemical substance: 0.5
Yeast gene YGR213C
  The level of expressed mRNA in the presence of chemical substance/The level of expressed mRNA in the absence of chemical substance: 4.1
Yeast gene YGR257C
  The level of expressed mRNA in the presence of chemical substance/The level of expressed mRNA in the absence of chemical substance: 2.1
Yeast gene YHR004C
  The level of expressed mRNA in the presence of chemical substance/The level of expressed mRNA in the absence of chemical substance: 2.0
Yeast gene YHR071W
  The level of expressed mRNA in the presence of chemical substance/The level of expressed mRNA in the absence of chemical substance: 2.0
Yeast gene YHR139C
  The level of expressed mRNA in the presence of chemical substance/The level of expressed mRNA in the absence of chemical substance: 1.9
Yeast gene YHR142W
  The level of expressed mRNA in the presence of chemical substance/The level of expressed mRNA in the absence of chemical substance: 1.2
Yeast gene YIL123W
  The level of expressed mRNA in the presence of chemical substance/The level of expressed mRNA in the absence of chemical substance: 0.5
Yeast gene YIL140W
  The level of expressed mRNA in the presence of chemical substance/The level of expressed mRNA in the absence of chemical substance: 0.5
Yeast gene YJL073W
  The level of expressed mRNA in the presence of chemical substance/The level of expressed mRNA in the absence of chemical substance: 2.0
Yeast gene YJL089W
  The level of expressed mRNA in the presence of chemical substance/The level of expressed mRNA in the absence of chemical substance: 1.6
Yeast gene YJL116C
  The level of expressed mRNA in the presence of chemical substance/The level of expressed mRNA in the absence of chemical substance: 3.4
Yeast gene YJR004C
  The level of expressed mRNA in the presence of chemical substance/The level of expressed mRNA in the absence of chemical substance: 1.2
Yeast gene YJR086W
  The level of expressed mRNA in the presence of chemical substance/The level of expressed mRNA in the absence of chemical substance: 1.9
Yeast gene YKL008C
  The level of expressed mRNA in the presence of chemical substance/The level of expressed mRNA in the absence of chemical substance: 3.8
